Laboratory results as given in PubChem BioAssay AID1745844 (Carcinogenic Potency Database (CPDB), 2022).
Activity calls are given as the source filed them. How the calls were made is not given here.

Test system: rodent lifetime carcinogenesis bioassay, tumor incidence TD50
Test: chronic cancer bioassays in animals – CPDB, compiled studies (AID 1745844)

Compound: COC(=O)C1=C(C)NC(C)=C(C(=O)OCCc2ccc(N3CCN(C(c4ccccc4)c4ccccc4)CC3)cc2)C1c1cccc([N+](=O)[O-])c1 (stereo not drawn)
- TD50 (mouse, strain B6C3F1, females, in feed, site: any site (literature study), lesion: several types, types named in the paper, dosed 78 weeks, study length 78 weeks): 293 mg/kg/day (inactive)
- TD50 (mouse, strain B6C3F1, females, in feed, site: liver, lesion: hepatocellular adenoma, dosed 78 weeks, study length 78 weeks): 714 mg/kg/day (inactive)
- carcinogen call (mouse, strain B6C3F1, females, in feed, site: lung, lesion: adenocarcinoma, dosed 78 weeks, study length 78 weeks): negative (inactive)
- TD50 (mouse, strain B6C3F1, females, in feed, site: lung, lesion: alveolar/bronchiolar adenoma, dosed 78 weeks, study length 78 weeks): 243 mg/kg/day (inactive)
- carcinogen call (mouse, strain B6C3F1, males, in feed, site: any site (literature study), lesion: several types, types named in the paper, dosed 78 weeks, study length 78 weeks): negative (inactive)
- carcinogen call (mouse, strain B6C3F1, males, in feed, site: liver, lesion: hepatocellular adenoma, dosed 78 weeks, study length 78 weeks): negative (inactive)
- TD50 (mouse, strain B6C3F1, males, in feed, site: liver, lesion: hepatocellular carcinoma, dosed 78 weeks, study length 78 weeks): 898 mg/kg/day (inactive)
- carcinogen call (mouse, strain B6C3F1, males, in feed, site: lung, lesion: adenocarcinoma, dosed 78 weeks, study length 78 weeks): negative (inactive)
- carcinogen call (mouse, strain B6C3F1, males, in feed, site: lung, lesion: alveolar/bronchiolar adenoma, dosed 78 weeks, study length 78 weeks): negative (inactive)
- TD50 (rat, strain F344/DuCrj, females, in feed, site: any site (literature study), lesion: several types, types named in the paper, dosed 104 weeks, study length 104 weeks): 46.1 mg/kg/day (inactive)
- TD50 (rat, strain F344/DuCrj, females, in feed, site: liver, lesion: hepatocellular adenoma, dosed 104 weeks, study length 104 weeks): 509 mg/kg/day (inactive)
- carcinogen call (rat, strain F344/DuCrj, males, in feed, site: any site (literature study), lesion: several types, types named in the paper, dosed 104 weeks, study length 104 weeks): negative (inactive)
- carcinogen call (rat, strain F344/DuCrj, males, in feed, site: liver, lesion: hepatocellular adenoma, dosed 104 weeks, study length 104 weeks): negative (inactive)

Compound: O=NN1CCOCC1
- TD50 (hamster, strain Syrian Golden, females, in drinking water, site: any site (literature study), lesion: several types, types named in the paper, dosed 104 weeks, study length 104 weeks): 1.48 mg/kg/day
- TD50 (hamster, strain Syrian Golden, females, in drinking water, site: larynx, lesion: several types, types named in the paper, dosed 104 weeks, study length 104 weeks): 15.4 mg/kg/day
- TD50 (hamster, strain Syrian Golden, females, in drinking water, site: liver, lesion: several types, types named in the paper, dosed 104 weeks, study length 104 weeks): 51.6 mg/kg/day
- TD50 (hamster, strain Syrian Golden, females, in drinking water, site: respiratory system, lesion: several types, types named in the paper, dosed 104 weeks, study length 104 weeks): 1.35 mg/kg/day
- TD50 (hamster, strain Syrian Golden, females, in drinking water, site: trachea, lesion: mixed-cell mucoepidermoid papilloma, dosed 104 weeks, study length 104 weeks): 11.3 mg/kg/day
- TD50 (hamster, strain Syrian Golden, males, in drinking water, site: any site (literature study), lesion: several types, types named in the paper, dosed 104 weeks, study length 104 weeks): 5.56 mg/kg/day
- TD50 (hamster, strain Syrian Golden, males, in drinking water, site: larynx, lesion: several types, types named in the paper, dosed 104 weeks, study length 104 weeks): 11.5 mg/kg/day
- TD50 (hamster, strain Syrian Golden, males, in drinking water, site: liver, lesion: several types, types named in the paper, dosed 104 weeks, study length 104 weeks): 9.14 mg/kg/day
- TD50 (hamster, strain Syrian Golden, males, in drinking water, site: respiratory system, lesion: several types, types named in the paper, dosed 104 weeks, study length 104 weeks): 5.98 mg/kg/day
- TD50 (hamster, strain Syrian Golden, males, in drinking water, site: trachea, lesion: mixed-cell mucoepidermoid papilloma, dosed 104 weeks, study length 104 weeks): 7.98 mg/kg/day
- TD50 (rat, strain Fischer 344, females, in drinking water, site: adrenal medulla, lesion: pheochromocytoma, dosed 45 weeks, study length 126 weeks): 0.325 mg/kg/day
- TD50 (rat, strain Fischer 344, females, in drinking water, site: adrenal medulla, lesion: pheochromocytoma, dosed 100 weeks, study length 126 weeks): 1.07 mg/kg/day
- TD50 (rat, strain Fischer 344, females, in drinking water, site: esophagus, lesion: several types, types named in the paper, dosed 45 weeks, study length 126 weeks): 1.97 mg/kg/day
- TD50 (rat, strain Fischer 344, females, in drinking water, site: esophagus, lesion: squamous-cell papilloma, dosed 45 weeks, study length 126 weeks): 2.53 mg/kg/day
- TD50 (rat, strain Fischer 344, females, in drinking water, site: liver, lesion: hemangiosarcoma, dosed 45 weeks, study length 126 weeks): 0.666 mg/kg/day
- TD50 (rat, strain Fischer 344, females, in drinking water, site: liver, lesion: hemangiosarcoma, dosed 50 weeks, study length 73 weeks): 0.348 mg/kg/day
- TD50 (rat, strain Fischer 344, females, in drinking water, site: liver, lesion: hemangiosarcoma, dosed 100 weeks, study length 126 weeks): 0.63 mg/kg/day
- TD50 (rat, strain Fischer 344, females, in drinking water, site: liver, lesion: hepatocellular carcinoma, dosed 45 weeks, study length 126 weeks): 0.564 mg/kg/day
- TD50 (rat, strain Fischer 344, females, in drinking water, site: liver, lesion: hepatocellular carcinoma, dosed 50 weeks, study length 73 weeks): 0.0805 mg/kg/day
- TD50 (rat, strain Fischer 344, females, in drinking water, site: liver, lesion: hepatocellular carcinoma, dosed 100 weeks, study length 126 weeks): 0.431 mg/kg/day
- TD50 (rat, strain Fischer 344, females, in drinking water, site: liver, lesion: neoplastic nodule, dosed 45 weeks, study length 126 weeks): 1.28 mg/kg/day
- TD50 (rat, strain Fischer 344, females, in drinking water, site: liver, lesion: neoplastic nodule, dosed 100 weeks, study length 126 weeks): 0.239 mg/kg/day
- TD50 (rat, strain Fischer 344, females, in drinking water, site: liver, lesion: several types, types named in the paper, dosed 45 weeks, study length 126 weeks): 0.14 mg/kg/day
- carcinogen call (rat, strain Fischer 344, females, in drinking water, site: liver, lesion: several types, types named in the paper, dosed 50 weeks, study length 73 weeks): positive
- TD50 (rat, strain Fischer 344, females, in drinking water, site: liver, lesion: several types, types named in the paper, dosed 100 weeks, study length 126 weeks): 0.127 mg/kg/day
- TD50 (rat, strain Fischer 344, females, in drinking water, site: thyroid gland, lesion: c-cell carcinoma, dosed 45 weeks, study length 126 weeks): 0.363 mg/kg/day
- TD50 (rat, strain Fischer 344, females, in drinking water, site: thyroid gland, lesion: follicular-cell adenoma, dosed 100 weeks, study length 126 weeks): 0.581 mg/kg/day
- TD50 (rat, strain Fischer 344, females, in drinking water, site: tongue, lesion: several types, types named in the paper, dosed 45 weeks, study length 126 weeks): 6.54 mg/kg/day
- TD50 (rat, strain Fischer 344, females, in drinking water, site: tongue, lesion: squamous-cell papilloma, dosed 45 weeks, study length 126 weeks): 50.2 mg/kg/day
- TD50 (rat, strain Fischer 344, females, in drinking water, site: tongue, lesion: squamous-cell papilloma, dosed 100 weeks, study length 126 weeks): 3.49 mg/kg/day
